“And” between values parts separate entries of the source, which are not always exact repeats. Equal entries are not always repeated. Where two headings read alike, the source gives them in different places.
How the values were obtained:
[1] = system: Trichostrongylus colubriformis; assay: Control of helminths (T. colubriformis) in infected gerbils; type: in vivo, Trichostrongylus colubriformis (sheep origin) in gerbils
Excerpt: Each test generally consists of 75 infected gerbils, randomly distributed 2 or 3 per cage (the number of animals per cage is consistent within a specific experiment). Generally, there are 8-9 untreated control gerbils (3-4 cages) per test. The remaining cages are assigned a treatment, usually 1 cage per compound or dose.
Compounds administered in diet are fed for 4 days. Animals treated by gavage or injection are generally treated on only 1 day (usually day 7).
In accordance with this test, gerbils are each orally infected by gavage, with about 400 Trichostrongylus colubriformis infective larvae of sheep origin. The infected animals are then permitted to feed and drink ad libitum for six days. On day 7 the infected gerbils are randomly placed in rodent cages 2 or 3 animals per cage. The animals in each cage are weighed and the feed for each cage weighed. If the treatment to be evaluated is medicated feed, said medicated feed is offered on day 7 and continued through day 11 of the trial. If the treatment to be evaluated is a single oral dose or a parenteral treatment, the animals are given the medication by gavage or injection on day 7 and receive unmedicated feed and water through day 11 of the trial. On day 11 the animals and their feed are weighed. Thereafter the animals are euthanized by CO2 inhalation and their small intestines removed, inverted on application sticks and incubated in tap water at 39° C. for 1-5 hours. The sticks and intestines are then discarded and the worms from each treatment counted to determine the % mortality of the worms as compared to untreated controls.

Psoroptes cuniculi = assay: Filter paper contact test against Psoroptes cuniculi (Rabbit Ear Mite); type: in vivo; details: Psoroptes ovis
Description: On the day prior to the test initiation the drugs to be evaluated are dissolved in acetone and diluted to the desired concentrations. The concentration is calculated so that 400 μl contains the amount of test compound to be placed on each filter paper. 400 μl of this solution is pipetted onto a top (3.7 cm dia.) and bottom (3.5 cm dia.) filter paper disks which are then placed on a ceramic plate to dry. There is a rough and smooth side to the filter paper. Drug should be applied to the rough side which is placed up while drying. When dry the two disks are placed in a Petri dish with the rough sides facing in, separated by one 3 mm glass bead. Dishes are held at room temperature overnight if done the day before the test.
Scab (containing mites) is collected from the ears of infested rabbits the morning of the test. This material is placed in a large Petri dish under an illuminated magnifier. Mites crawl out of the scab and are easily collected on the point of a dissecting needle or one prong of a pair of fine forceps. The top filter paper in each dish is removed and 12 mites are placed on the bottom disk and the top paper replaced. Before replacing the top of the Petri dish the rim of the dish is smeared with Vaseline to trap any escaping mites.
For evaluation tests there are generally 4 replicates of each dose which are counted at 24 hours. After mites are added to the dishes, the dishes in each replicate are placed in a tray which is then placed in a plastic bag with several wet towels and held at room temperature.
After 24 hours dishes are examined under a dissecting scope. Each dish is opened carefully and the top filter paper removed and saved. A 1/2 cm circle is drawn on the bottom filter paper and the paper gently wet in the area of the circle. All mites from the dish are transferred into the wet circle area and counted. The top cover is replaced on each dish and the dishes set aside for at least 15 minutes. After standing the dishes are examined and the mites remaining on the circle counted. These mites are dead. Percent mortality of the mites is then calculated for each treatment.

Ctenocephalides felis = assay: Filter paper contact test against the cat flea; type: in vivo; details: 20.0 μg/cm^2, 24 hour
Description: This test is conducted in the same manner as the mite filter paper test described in Example 2 with the following exceptions:
(1) only one filter paper is used on the bottom of the dish;
(2) Unfed fleas that have emerged from pupae within the last 24 hours are used for the test. Fleas are initially collected in glass vials and then temporarily immobilized by placing the vials in ice. Once the fleas are no longer active, vials are opened and fleas dumped into Petri dishes. The number of fleas per dish will vary but generally contain 8-12 fleas.
(3) Dishes are held for 24 hours until the mortality counts are made;
(4) Edges of the Petri dish are sealed with Scotch tape to prevent escape of the fleas; and
(5) Dishes are not opened when test is read but fleas are observed under dissecting scope in the dishes. Some fleas will move under the filter paper so dish should be inverted to check. Fleas are considered dead if they cannot remain upright and jump.

Housefly Larvae = assay: Inhibition of pupation of newly emerged housefly larvae; type: in vivo; details: Musca domestica, 168 h, one week, 27° C., corrected by Abbott's formula
Description: In this test system newly emerged housefly larvae are grown on an undefined medium of fermented whole milk and dried beef blood. Compounds are added to the milk and activity is determined by the failure of larvae to pupate.
The test is run in 1 oz. plastic medicine cups. Paper toweling is cut in pieces approximately 3.5×10 cm. Three of these pieces are folded accordion style and placed in each paper cup. A piece of masking tape is placed on the outside of the cup to facilitate numbering. Cups should be prepared prior to the day the test is to begin.
Newly hatched housefly larvae are obtained on the morning the test is to begin. The eggs are laid the night before and larvae usually begin to hatch by 9-10 AM the following morning.
Twenty-four hours before the initiation of the test, one half gallon of whole milk is divided into 5 1-liter beakers and placed in an incubator at 39° C.
The morning of the test, one 250 ml beaker is labeled for each treatment. The fermented milk is removed from the incubator, stirred and poured into each of the small beakers. The beakers are then returned to the incubator and 1-2 g of dried beef blood added to each beaker to distribute blood which will not dissolve. The beakers are again returned to the incubator.
Doses of compounds are calculated so that 0.1 ml contains the amount of compound to be added to 100 ml of milk. Compounds should be dissolved in acetone. 100 μl of acetone is added to each control beaker.
Each beaker is removed from incubator and placed on a magnetic stirrer. The compound is added and thoroughly mixed. Then 20 ml portions are removed and added to labelled test cups (4 reps/treatment). Cups are placed in stainless steel tray until all are prepared. […] The tray containing the cups are then placed in a plastic bag and maintained at room temperature.
The media that the fly eggs are laid in is spread out in a green or black pan so that larvae can be observed. Working under an illuminated magnifier 20 larvae are transferred into each cup using a fine paint brush. Each cup is then sealed in a Zip-Loc sandwich bag with a few pinholes in it.
Bags containing cups are placed on a flat tray and placed in a 27° C. incubator for one week. The majority of the larvae will have pupated at this point.
Trays are then removed from the incubator and the number of pupae in each bag recorded. The paper toweling is removed and examined closely for any pupae that have remained in the cups. Most of the pupae will be loose in the bag. A note is also made of any dead or live developed larvae. If there are larvae that appear capable of pupating, the bag may be returned to the incubator for a day to see if they will pupate.
The percent development of pupae is then calculated. The final results are expressed as a percent inhibition of pupation and are corrected for control mortality by using Abbott's formula.

Caenorhabditis elegans = assay: Nematicidal activity against C. elegans (motility rating); type: in vivo, C. elegans (Bristol strain); parameters: key: 9: complete kill; 8: no motility; 7: markedly reduced motility in approximately 95% of worms; 6: reduced motility; 5: slightly reduced motility; 0: normal motility, same as controls; details: read at 4 and 24 hours post-immersion
Description: Cultures of C. elegans (Bristol strain from J. Lewis) are maintained on E. coli lawns on NG Agar Plates at 20° C. New cultures are established weekly.
Nematodes for testing are washed from 4-5 day old cultures using Fresh Ascaris Ringers Solution (FARS). The worms are further washed with FARS,-containing gentamycin, to reduce bacterial contamination and centrifuged to separate worms from wash solution. This procedure is repeated three times. The washed worms are then added to C. brigassae Maintenance Medium (CbMM), from GIBCOa to which is added gentamycin (600 units/ml) and mycostatin (0.5 mg/ml).
Compounds are dissolved in acetone and made up to volume with equal parts of water. The final test concentration of each compound in the mixture is 150 ppm. The test material is micropipetted (25 ul) into a single well of a 96-well sterile tissue culture plate (COSTAR)^b and the solvent allowed to evaporate. These "treated" plates are used immediately or stored in a refrigerator without apparent adverse effects on the compounds.
A freshly prepared volume ([…]) of C. elegans in CbMM is micropipetted into each treated well and several control wells per plate. Culture plates are incubated at 20° C.
Observations for efficacy are made under a dissecting microscope at 4 and 24 hours post-immersion. Immediately prior to reading the plate, it is gently tapped to stimulate the movement of the worms. Activity is judged based on the drug effects on motility of the adults and larvae. […] Other factors indicating activity are easily noted such as death, rigor mortis, contraction, coiling, paralysis, abnormal twitching, reduced worm population in 48 hours and other deviation from normal behavior.
Day 0 Inoculate E. Coli-NG Agar Dish With 30-40
Day 4 Harvest New C. Elegans Population
Add C. Elegans (25-100 µL) To "Medicated"
Observe for Activity at 4 hours Post-
Day 5 Observe For Activity

Dermacentor variabilis = assay: Filter paper contact test against larval stages of the Dogtick; type: in vivo
Description: The test procedure used herein is the same procedure described in Example 2, for evaluating the arylpyrroles for control of Psoroptes cuniculi the Rabbit Ear Mite, with the following exceptions:
(1) Unfed larval ticks are obtained from egg masses laid by gravid female ticks removed from dogs and each replicate receives ticks from the same egg mass;
(2) Ticks survive longer than mites in the Petri dishes, thus readings are made 48 hours or longer after the test is initiated; and
(3) When reading the test it may be necessary to blow on the ticks to stimulate their movement.

[2] = 4.0 μg/cm^2, 24 hour, read-out: 24 hour % Mortality
[3] = 24 h, read-out: 24 hour % Mortality

In the case of `N#Cc1[nH]c(-c2ccc(Cl)cc2)c(C#N)c1Br` [3-Bromo-5-(p-chlorophenyl)pyrrole-2,4-dicarbonitrile], the “% Helminth removal” value ([1]; 500 PPM in diet, 4 days) is reported as 54% and 36% and 50%, the “% Helminth removal” value ([1]; single oral dose 10 mg/kg) is reported as 25% and the “% Helminth removal” value ([1]; single oral dose 25 mg/kg) is reported as 18%. The mortality at 4 µg/cm2, 4 µg/cm2 (Psoroptes cuniculi; [2]) was 48%, the mortality at 20 µg/cm2, 20 µg/cm2 (Ctenocephalides felis) was 47% and the inhibition at 1 ppm (Housefly Larvae; 1.0 ppm) was 0%. The inhibition at 10 ppm (Housefly Larvae) was 100% and the “Rating Against C. Elegans 150 ppm” value (Caenorhabditis elegans) was 9.
`O=[N+]([O-])c1cc(C(F)(F)F)[nH]c1-c1ccc(Cl)c(Cl)c1` [2-(3,4-Dichlorophenyl)-3-nitro-5-(trifluoromethyl)-pyrrole] was tested, and the mortality at 4 µg/cm2, 4 µg/cm2 (Psoroptes cuniculi; [3]) was 100%, the mortality at 20 µg/cm2, 20 µg/cm2 (Ctenocephalides felis) was 73% and the inhibition at 10 ppm (Housefly Larvae) was 100%. For the same molecule, the “Rating Against C. Elegans 150 ppm” value (Caenorhabditis elegans) was 9.
In the case of `CCOCn1c(Cl)c(Cl)c(C#N)c1-c1ccc(C(F)(F)F)cc1` [4,5-Dichloro-1-(ethoxymethyl)-2-(α,α,α-trifluoro-P-tolyl)pyrrole-3-carbonitrile], the mortality at 0.01 µg/cm2, 0.01 µg/cm2 (Psoroptes cuniculi; [3]) is reported as 48%, the mortality at 0.1 µg/cm2, 0.1 µg/cm2 (Psoroptes cuniculi; 0.1 μg/cm^2, 24 hour) is reported as 20% and the mortality at 1 µg/cm2, 1 µg/cm2 (Psoroptes cuniculi; 1.0 μg/cm^2, 24 hour) is reported as 100%. It also gave a mortality at 4 µg/cm2, 4 µg/cm2 (Psoroptes cuniculi; [2]) of 92%, a mortality at 16 µg/cm2, 16 µg/cm2 (Psoroptes cuniculi; 16.0 μg/cm^2, 24 hour) of 100% and a mortality at 20 µg/cm2, 20 µg/cm2 (Ctenocephalides felis) of 71%. It also gave a mortality at 1 µg/cm2, 1 µg/cm2 (Dermacentor variabilis; 1.0 μg/cm^2, 48 hour) of 52%, a mortality at 5 µg/cm2, 5 µg/cm2 (Dermacentor variabilis; 5.0 μg/cm^2, 48 hour) of 100% and a mortality at 10 µg/cm2, 10 µg/cm2 (Dermacentor variabilis; 10.0 μg/cm^2, 48 hour) of 97%. The inhibition at 10 ppm (Housefly Larvae) was 64% and the “Rating Against C. Elegans 150 ppm” value (Caenorhabditis elegans) was 9.
